Reference: patent US8759400B2, “Histone deacetylase inhibitors for enhancing activity of antifungal agents” (MethylGene Inc., priority 2005, dated 2014)
In brackets after ≈: the same amount, converted by molar mass. Where two headings read alike, the source gives them in different places.

Tests used:
C. glabrata (ATCC 90030) [1] = test: MIC80 and checkerboard synergy with antifungal agents; format: cell-based, Candida glabrata; details: for Cpd 4 Conc for 4-fold synergy: C. glabrata (90030)
C. tropicalis = test: Fungicidal activity (CFU counts); format: cell-based; details: voriconazole with Compound 4, data not shown
Trichosporon = test: Clinical isolates of other fungal species, checkerboard; format: cell-based
C. albicans = test: Clinical isolates, CLSI M27-A2 broth microdilution and checkerboard; format: cell-based; details: Cpd 4 with voriconazole
C. albicans (ATCC 90028) = test: MIC80 and checkerboard synergy with antifungal agents; format: cell-based, Candida albicans; details: for Conc. Cpd 4 for 4-fold decrease: C. albicans; for Cpd 4 Conc for 4-fold synergy: C. albicans (90028)
C. tropicalis (750) = test: MIC and checkerboard synergy with azoles; format: cell-based, Candida tropicalis
Procedure: For susceptibility studies, overnight cultures of both Candida species are diluted 1:100 in YEPD medium, grown for 4 h at 30° C., counted in a hemocytometer, then diluted to a concentration of 5×10^3 cells/ml. […] Synergy, determined by the checkerboard method, is defined as a decrease in MIC of antifungal agent that is more than additive of the MIC of the histone deacetylase inhibitor and the antifungal agent alone.

C. glabrata = test: Clinical isolates, CLSI M27-A2 broth microdilution and checkerboard; format: cell-based
A. fumigatus = test: Clinical isolates, CLSI M38-A broth microdilution and checkerboard; format: cell-based
C. lusitaniae = test: Clinical isolates, CLSI M27-A2 broth microdilution and checkerboard; format: cell-based
C. glabrata (ATCC 90030) [2] = format: cell-based
Aspergillus terreus = test: Clinical isolates of other fungal species, checkerboard; format: cell-based
Histoplasma = test: microbe, parasite or virus in culture; format: cell-based
[3] = Trichosporon, **MIC of azole <0.06 μg/ml, too low to determine synergistic concentration

Compound: O=C(Cc1ccc(CCCCc2ccccc2)cc1)NO [Cpd 4]
- Conc. Cpd 4 for 4-fold decrease (C. glabrata (ATCC 90030) [1]; 4-fold decrease of fenpropimorph MIC, C. glabrata): 0.78 µg/mL
- MIC (C. glabrata (ATCC 90030) [1]; Nakaseomyces glabratus, ATCC90030, compound alone, C. glabrata (ATCC 90030), read-out: MIC80): 6.25 µg/mL
- concentration at which Compound 4 synergizes with fenpropimorph (C. glabrata (ATCC 90030) [1]; against C. glabrata): 2 µg/mL
- Cpd 4 Conc for 4-fold synergy (C. glabrata (ATCC 90030) [1]; with itraconazole): 0.2 µg/mL
- Cpd 4 Conc for 4-fold synergy (C. glabrata (ATCC 90030) [1]; with ketoconazole): 0.25 µg/mL
- Cpd 4 Conc for 4-fold synergy (C. glabrata (ATCC 90030) [1]; with voriconazole): 0.39 µg/mL
- increase in voriconazole fungicidal activity (C. tropicalis): 1.1-1.2 fold
- MIC (Trichosporon; Trichosporon clinical isolates, read-out: Cpd 4 MIC): 0.125 to 0.5 µg/mL
- Synergy with Cpd 4 (strains showing synergy/total strains tested) Itraconazole (Trichosporon; [3]): 1/3**
- Synergy with Cpd 4 (strains showing synergy/total strains tested) Voriconazole (Trichosporon; [3]): 0/3**
- VOR/Cpd 4 FIC interpretation (C. albicans): (S) (S = synergy)
- Conc. Cpd 4 for 4-fold decrease (C. albicans (ATCC 90028); 4-fold decrease of nikkomycin MIC): 1.563 µg/mL
- Conc. Cpd 4 for 4-fold decrease (C. albicans (ATCC 90028); 4-fold decrease of terbinafine MIC): 0.78 µg/mL
- MIC (C. albicans (ATCC 90028); Candida albicans, ATCC90028, compound alone, C. albicans (ATCC 90028), read-out: MIC80): 0.8 µg/mL
- Cpd 4 Conc for 4-fold synergy (C. albicans (ATCC 90028); with itraconazole): 0.024 µg/mL
- Cpd 4 Conc for 4-fold synergy (C. albicans (ATCC 90028); with voriconazole): 0.39 µg/mL
- MIC (C. tropicalis (750); Candida tropicalis, read-out: Cpd 4 MIC): > 50 µg/mL
- Cpd 4 Conc for 4-fold synergy (C. tropicalis (750); with itraconazole): 0.2 µg/mL
- Cpd 4 Conc for 4-fold synergy (C. tropicalis (750); with ketoconazole): 0.2 µg/mL
- Cpd 4 Conc for 4-fold synergy (C. tropicalis (750); with voriconazole): 0.39 µg/mL
- Conc. Cpd 4 for 4-fold decrease (C. glabrata; 4-fold reduction of FLU MIC, C. glabrata clinical isolates): 0.5 µg/mL
- Conc. Cpd 4 for 4-fold decrease (C. glabrata; 4-fold reduction of VOR MIC, C. glabrata clinical isolates): 0.5 µg/mL
- FLU/Cpd 4 FIC (C. glabrata; Cpd 4 with fluconazole, C. glabrata clinical isolates): 0.5
- VOR/Cpd 4 FIC interpretation (C. glabrata; Cpd 4 with voriconazole, C. glabrata clinical isolates): (S) (S = synergy)
- minimum Compound 4 concentration at which Compound 4 alone inhibited growth (number in brackets) (C. glabrata; FLU checkerboard, C. glabrata clinical isolates): 0.5 µg/mL
- minimum Compound 4 concentration at which Compound 4 alone inhibited growth (number in brackets) (C. glabrata; VOR checkerboard, C. glabrata clinical isolates): 0.5 µg/mL
- Compound 4 concentration for 4-fold reduction in azole MIC (C. glabrata; all 14 C. glabrata clinical isolates (9 FLU-R)): < 0.5 µg/mL
- ITR/Cpd 4 FIC interpretation (A. fumigatus; Cpd 4 with itraconazole): (S) (S = synergy)
- VOR/Cpd 4 FIC interpretation (A. fumigatus; Cpd 4 with voriconazole): (S) (S = synergy)
- minimum Compound 4 concentration at which Compound 4 alone inhibited growth (number in brackets) (A. fumigatus; ITR checkerboard): 4.0 µg/mL
- FLU/Cpd 4 FIC (C. lusitaniae; Cpd 4 with fluconazole): <0.1
- FLU/Cpd 4 FIC interpretation (C. lusitaniae; Cpd 4 with fluconazole): (S) (S = synergy)
- VOR/Cpd 4 FIC interpretation (C. lusitaniae; Cpd 4 with voriconazole): (S) (S = synergy)
- minimum Compound 4 concentration at which Compound 4 alone inhibited growth (number in brackets) (C. lusitaniae; VOR checkerboard): 4 µg/mL
- frequency of resistant mutants (C. glabrata (ATCC 90030) [2]; 4× synergistic MIC80 concentrations of Compound 4 and fluconazole): 2×10^−7
- frequency of resistant mutants (C. glabrata (ATCC 90030) [2]; 4× the synergistic MIC80 of Compound 4 and itraconazole): 1×10^−7
- resistant mutants detected (C. glabrata (ATCC 90030) [2]; Compound 4 and itraconazole at 2×MIC): no mutants were detected
- Synergy with Cpd 4 (strains showing synergy/total strains tested) Itraconazole (Aspergillus terreus; Aspergillus terreus): 3/3
- Synergy with Cpd 4 (strains showing synergy/total strains tested) Voriconazole (Aspergillus terreus; Aspergillus terreus): 3/3
- MIC (Aspergillus terreus; Aspergillus terreus clinical isolates, read-out: Cpd 4 MIC): > 8 µg/mL
- Synergy with Cpd 4 (strains showing synergy/total strains tested) Itraconazole (Histoplasma): 0/3
- Synergy with Cpd 4 (strains showing synergy/total strains tested) Voriconazole (Histoplasma): 0/3
- MIC (Histoplasma; read-out: Cpd 4 MIC): 1 to 2 µg/mL (≈ 3.53 to 7.06 µM)
